Measured values from US20220054532A1, “VETERINARY COMPOSITIONS AND METHODS OF USE THEREFOR” (priority 2019, published 2022).

Columns and labels:
Format in all cases: in vivo
[1] = tested on: dogs suffering from cognitive dysfunction syndrome; test: Example 10: cognitive decline, Cognitive Dysfunction Screening Checklist (CBD Complex); conditions: for Average Initial Score: day 0 (before treatment); for Average Final Score: day 60, BID
Description: (§1) This example examines the ability of embodiments of the invention versus Anipryl® to treat cognitive decline.
The patient group is twenty dogs suffering from cognitive dysfunction syndrome, as determined by the Cognitive Dysfunction Screening Checklist. See G. Landsberg et al., 2003 HANDBOOK OF BEHAVIOR PROBLEMS OF THE DOG AND CAT (Elsevier Science Limited) (2003). The twenty dogs are broken into five groups of four dogs. The first group receives Anipryl® as the sole active agent; the second group receives a composition comprising HMW HA as the sole active agent; the third group receives a composition comprising CBD as the sole active agent; the fourth group receives a composition comprising HMW HA and CBD Complex as the active agents; and the fifth group receives a composition comprising HMW HA, CBD Complex, nicotinamide adenine dinucleotide (“NAD”), and phosphatidylserine as the active agents.
(§2) Each composition is administered for a period of sixty (60) days, twice per day (“BID”). The owner completes the Checklist on days 0 (“Initial Score”), 15, 30, 45, and 60 (“Final Score”) of treatment.
Each group is evaluated and Checklist scores averaged. The following scores are observed and the results depicted in FIG. 10: […]

[2] = tested on: cats suffering from GI-specific inflammation; test: Example 11: GI-specific inflammation, owner-rated symptom reduction; conditions: species not given, symptom reduction score 0 to 4; for Final Score: after 28 days BID
Description: (§3) This example examines the ability of embodiments of the invention versus Pepcid® to treat unwanted GI-specific inflammation characterized by gastritis, reflux, vomiting, diarrhea, and inappetence.
(§4) The first patient group is twenty dogs suffering from GI-specific inflammation. The second patient group is twenty cats suffering from GI-specific inflammation. Each patient group is broken into five groups of four animals. The first groups receive Pepcid® as the sole active agent; the second groups receive a composition comprising HMW HA as the sole active agent; the third groups receive a composition comprising CBD as the sole active agent; the fourth groups receive a composition comprising HMW HA and CBD Complex as the active agents; and the fifth groups receive a composition comprising HMW HA, CBD Complex, and glutathione as the active agents.
(§5) Each composition is administered for a period of twenty-eight (28) days, BID. The owner observes potential reduction of symptoms at the end of treatment and rates the reduction as no reduction (score of 0), mild reduction (score of 1), moderate reduction (score of 2), significant reduction (score of 3), or resolution of symptoms (score of 4).

[3] = tested on: horses suffering from joint inflammation; test: Example 4: joint inflammation, thermal imaging (equine); conditions: over the inflamed joint, 60 days BID
Description: (§6) This example examines the ability of embodiments of the invention versus Cosequin® to treat joint inflammation.
(§7) The first patient group is twenty dogs suffering from joint inflammation. The second patient group is twenty cats suffering from joint inflammation. The third patient group is twenty horses suffering from joint inflammation. Each patient group is broken into five groups of four animals. The first groups receive Cosequin® as the sole active agent; the second groups receive a composition comprising HMW HA as the sole active agent; the third groups receive a composition comprising CBD as the sole active agent; the fourth groups receive a composition comprising HMW HA and CBD as the active agents; and the fifth groups receive a composition comprising HMW HA, CBD, Boswellia, and superoxide dismutase (“SOD”) as the active agents.
(§8) Each composition is administered for a period of sixty (60) days, BID. Efficacy is determined by a decrease in body temperature over the inflamed joint, as measured by thermal imaging (e.g., via Digatherm device). Thermal imaging is performed on days 0 (“Initial Score”), 15, 30, 45, and 60 (“Final Score”) of treatment.
The following equine scores are observed and the results depicted in FIG. 4c: […]

[4] = tested on: dogs suffering from cognitive dysfunction syndrome; test: Example 2: cognitive decline, Cognitive Dysfunction Screening Checklist; conditions: for Average Initial Score: day 0 (before treatment); for Average Final Score: day 60, BID
Description: as §1
The patient group is twenty dogs suffering from cognitive dysfunction syndrome, as determined by the Cognitive Dysfunction Screening Checklist. See G. Landsberg et al., 2003 HANDBOOK OF BEHAVIOR PROBLEMS OF THE DOG AND CAT (Elsevier Science Limited) (2003). The twenty dogs are broken into five groups of four dogs. The first group receives Anipryl® as the sole active agent; the second group receives a composition comprising HMW HA as the sole active agent; the third group receives a composition comprising CBD as the sole active agent; the fourth group receives a composition comprising HMW HA and CBD as the active agents; and the fifth group receives a composition comprising HMW HA, CBD, nicotinamide adenine dinucleotide (“NAD”), and phosphatidylserine as the active agents.
as §2
Each group is evaluated and Checklist scores averaged. The following scores are observed and the results depicted in FIG. 2: […]

[5] = tested on: dogs suffering from GI-specific inflammation; test: Example 3: GI-specific inflammation, owner-rated symptom reduction (canine); conditions: symptom reduction score 0 (no reduction) to 4 (resolution of symptoms); for Final Score: after 28 days BID
Description: as §3
as §4, with “CBD” for “CBD Complex”, “CBD,” for “CBD Complex,”
as §5
The following canine scores are observed and the results depicted in FIG. 3a: […]

[6] = tested on: dogs suffering from joint inflammation; test: Example 4: joint inflammation, thermal imaging (canine); conditions: over the inflamed joint, 60 days BID
Description: as §6, §7, §8
The following canine scores are observed and the results depicted in FIG. 4a: […]

[7] = tested on: dogs suffering from joint inflammation; test: Example 12: joint inflammation, thermal imaging (canine, CBD Complex); conditions: over the inflamed joint, 60 days BID
Description: as §6
The first patient group is twenty dogs suffering from joint inflammation. The second patient group is twenty cats suffering from joint inflammation. The third patient group is twenty horses suffering from joint inflammation. Each patient group is broken into five groups of four animals. The first groups receive Cosequin® as the sole active agent; the second groups receive a composition comprising HMW HA as the sole active agent; the third groups receive a composition comprising CBD as the sole active agent; the fourth groups receive a composition comprising HMW HA and CBD Complex as the active agents; and the fifth groups receive a composition comprising HMW HA, CBD Complex, Boswellia, and superoxide dismutase (“SOD”) as the active agents.
as §8
The following canine scores are observed and the results depicted in FIG. 12a: […]

Compound | Average Initial Score [1] | Average Final Score [1] | Final Score [2] | Initial Score [2] | Reduction in Temperature (° F.) [3] [° F.] | Average Initial Score [4] | Average Final Score [4] | Final Score [5] | Initial Score [5] | Reduction in Temperature (° F.) [6] [° F.] | Reduction in Temperature (° F.) [7] [° F.]
C=C(C)[C@@H]1CCC(C)=C[C@H]1c1c(O)cc(CCCCC)cc1O [CBD Alone, 2-[(1R,6R)-3-methyl-6-prop-1-en-2-ylcyclohex-2-en-1-yl]-5-pentylbenzene-1,3-diol] | 3 | 1.5 | 2 | 0 | 1.6 | 3 | 1.5 | 2 | 0 | 1.7 | 1.7
hyaluronic acid [HMW HA Alone] | 3 | 2 | 3 | 0 | 2.1 | 3 | 2 | 3 | 0 | 1.9 | 1.9
